# Like-named read-outs stand apart in the source and are kept apart here.
# Columns and labels:
# nAChR currents in OHCs = target: T1, nAChR currents in OHCs (Rattus norvegicus, UniProt P43144+Q9JLB5); experiment: Steady-state block of nAChR currents in OHCs (BAPTA intracellular solution); type: cell-based, Wistar rats; conditions: −94 mV, 200 μM ACh, 10 mM BAPTA
# T1 construct: Currents through nAChRs were recorded from an OHC; from tissue; host or cells: outer hair cells in the apical turn of the organ of Corti, Wistar rat
# T1 sequence (P43144 26-479): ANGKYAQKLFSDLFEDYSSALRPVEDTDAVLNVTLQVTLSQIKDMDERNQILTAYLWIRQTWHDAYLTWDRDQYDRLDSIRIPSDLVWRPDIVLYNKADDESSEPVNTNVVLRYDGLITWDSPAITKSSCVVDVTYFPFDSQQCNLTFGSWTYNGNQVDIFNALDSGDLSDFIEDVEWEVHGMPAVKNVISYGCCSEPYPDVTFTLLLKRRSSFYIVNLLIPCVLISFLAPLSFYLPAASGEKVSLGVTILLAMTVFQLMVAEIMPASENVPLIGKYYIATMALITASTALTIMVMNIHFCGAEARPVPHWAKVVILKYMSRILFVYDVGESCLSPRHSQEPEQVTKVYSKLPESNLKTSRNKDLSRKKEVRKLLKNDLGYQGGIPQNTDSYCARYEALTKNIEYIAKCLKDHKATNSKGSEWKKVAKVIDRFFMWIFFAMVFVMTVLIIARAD
# T1 sequence (Q9JLB5 25-447): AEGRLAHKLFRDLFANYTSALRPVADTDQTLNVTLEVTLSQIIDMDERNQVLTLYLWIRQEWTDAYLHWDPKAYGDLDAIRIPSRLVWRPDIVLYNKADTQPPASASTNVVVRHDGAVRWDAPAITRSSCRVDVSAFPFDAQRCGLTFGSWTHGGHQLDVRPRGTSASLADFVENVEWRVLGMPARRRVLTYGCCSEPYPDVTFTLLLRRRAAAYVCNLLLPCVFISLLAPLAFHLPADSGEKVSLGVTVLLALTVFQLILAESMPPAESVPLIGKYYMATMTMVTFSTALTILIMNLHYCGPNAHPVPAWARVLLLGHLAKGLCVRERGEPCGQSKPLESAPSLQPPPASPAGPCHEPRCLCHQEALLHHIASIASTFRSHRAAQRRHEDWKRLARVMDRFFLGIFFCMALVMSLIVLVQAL
# Method: (§1) The apical turn of the organ of Corti was dissected from cochleae of three to six week old Wistar rats as described previously (Oliver et al., 1999, J Physiol (Lond) 519, 791-800; Oliver et al., 2000, Neuron 26, 595-601). The preparation was performed in a solution containing (in mM) 144 NaCl, 5.8 KCl, 0.1 CaCl2, 2.1 MgCl2, 10 HEPES, 0.7 Na2HPO4, 5.6 glucose, pH adjusted to 7.3 with NaOH. For recordings, OHCs located between half and one turn from the apex of the cochlea were chosen. If necessary, supporting cells were removed with gentle suction from a cleaning pipette carefully avoiding mechanical disturbance of the efferent nerve terminals.
# Whole-cell patch-clamp recordings were performed with an Axopatch 200B amplifier (Axon Instruments, Foster City, Calif.) at room temperature (22-25° C.). Electrodes were pulled from quartz glass, had resistances of 2-3 MΩ and were filled with intracellular solution (in mM): 135 KCl, 3.5 MgCl2, 0.1 CaCl2, 5 EGTA, 5 HEPES, 2.5 Na2ATP. […]
# (A) Steady-state block of nAChR currents in OHCs by memantine. Currents through nAChRs were recorded from an OHC at a holding potential of −94 mV. […] (B) Dose-inhibition relation for memantine block of nAChR currents (squares), recorded from 4 OHCs as in (A). Steady-state amplitudes were normalized to the value recorded in the absence of memantine. […]
# [1] = test system: inhibitory postsynaptic currents (IPSC) in outer hair cells (OHCs); experiment: Patch-clamp recording of inhibitory postsynaptic currents (IPSC) in outer hair cells; type: cell-based, Wistar rats
# Method: as §1
# Whole-cell patch-clamp recordings were performed with an Axopatch 200B amplifier (Axon Instruments, Foster City, Calif.) at room temperature (22-25° C.). Electrodes were pulled from quartz glass, had resistances of 2-3 MΩ and were filled with intracellular solution (in mM): 135 KCl, 3.5 MgCl2, 0.1 CaCl2, 5 EGTA, 5 HEPES, 2.5 Na2ATP. For one series of experiments, an intracellular solution containing the Ca^2+-chelator BAPTA was used (in mM): 120 KCl, 3.5 MgCl2, 10 BAPTA, 5 HEPES, 2.5 Na2ATP. The pH of both solutions was adjusted to pH 7.3 with KOH. Membrane potential was corrected for the electrode junction potential (−4 mV). Whole-cell series resistance ranged from 4 to 9 MΩ and was not compensated. Currents were filtered at 1 kHz and sampled at 5 kHz. The specimen were continuously superfused with extracellular solution (in mM: 144 NaCl, 5.8 KCl, 2 CaCl2, 0.9 MgCl2, 10 HEPES, 0.7 Na2HPO4, 5.6 glucose, pH adjusted to 7.3 with NaOH). Chemicals as well as depolarizing solutions were applied via a glass capillary (diameter approximately 80 μm) positioned close to the organ of Corti. […]
# In FIG. 1, postsynaptic currents were recorded from OHCs in voltage-clamp experiments when cells were held at −64 mV and the whole Corti preparation was superfused with high extracellular K^+ to depolarize the presynapse. […] This dose-dependent response determined for the IPSC in OHCs is illustrated in FIG. 1B.
# [2] = target: T2, nAChR-induced SK2 current (α9/α10 nAChR with SK2 channels) (Rattus norvegicus, UniProt P43144+Q9JLB5); experiment: nAChR-induced SK2 current in oocytes coexpressing α9, α10 and SK2; type: cell-based; conditions: −30 mV, 100 μM ACh
# T2 construct: The coding region of the rat α10 gene; expressed in transfected cells; host or cells: Xenopus laevis oocytes (mRNA co-injection)
# T2 sequence (P43144 26-479): as the sequence (P43144 26-479) above
# T2 sequence (Q9JLB5 25-447): as the sequence (Q9JLB5 25-447) above
# Method: (§2) In vitro mRNA synthesis and oocyte injections were performed as previously described (Fakler et al., 1995, Cell 80, 149-154; Oliver et al., 2000, see above). The electrophysiology on oocytes was also as described previously (Oliver et al., 2000, see above). In detail, AChR subunits and SK2 channels were heterologously expressed in Xenopus oocytes. Oocytes were surgically removed from adult females and dissected manually. 4-5 day prior to electrophysiological recordings, Dumont stage VI oocytes were injected with about 50 ng RNA. For coexpression experiments, the total amount of RNA was kept constant and the different RNAs were coinjected in equal concentrations. Two-electrode voltage-clamp measurements were performed with a TurboTec 01C amplifier (npi, Tamm, Germany), using microelectrodes of 0.1 to 0.5 MΩ filled with 3 M KCl. Extracellular medium was CaNFR, containing (in mM): 120 KCl, 2.5 KCl, 2 CaCl2, 10 HEPES, pH adjusted to 7.3 with NaOH. For experiments in the absence of extracellular Ca^2+, the extracellular solution was MgNFR (in mM): 120 KCl, 2.5 KCl, 2 MgCl2, 10 HEPES, pH adjusted to 7.3 with NaOH. […]
# (A) Application of 100 μM ACh for the time indicated to an oocyte coexpressing α9, α10, and SK2. […] Peak outward currents were recorded at −30 mV and were normalized to the values preceding memantine application.
# [3] = target: NMDA-type glutamate receptors; conditions: at −70 mV; cited from earlier work
# α9/α10 nAChR = target: T3, α9/α10 nAChR (Rattus norvegicus, UniProt P43144+Q9JLB5); experiment: Two-electrode voltage-clamp on α9/α10 nAChR expressed in Xenopus oocytes; type: cell-based
# T3 construct: The coding region of the rat α10 gene; expressed in transfected cells; host or cells: Xenopus laevis oocytes (mRNA injection)
# T3 sequence (P43144 26-479): as the sequence (P43144 26-479) above
# T3 sequence (Q9JLB5 25-447): as the sequence (Q9JLB5 25-447) above
# Method: In vitro mRNA synthesis and oocyte injections were performed as previously described (Fakler et al., 1995, Cell 80, 149-154; Oliver et al., 2000, see above). The electrophysiology on oocytes was also as described previously (Oliver et al., 2000, see above). In detail, AChR subunits and SK2 channels were heterologously expressed in Xenopus oocytes. Oocytes were surgically removed from adult females and dissected manually. 4-5 day prior to electrophysiological recordings, Dumont stage VI oocytes were injected with about 50 ng RNA. For coexpression experiments, the total amount of RNA was kept constant and the different RNAs were coinjected in equal concentrations. Two-electrode voltage-clamp measurements were performed with a TurboTec 01C amplifier (npi, Tamm, Germany), using microelectrodes of 0.1 to 0.5 MΩ filled with 3 M KCl. Extracellular medium was CaNFR, containing (in mM): 120 KCl, 2.5 KCl, 2 CaCl2, 10 HEPES, pH adjusted to 7.3 with NaOH. For experiments in the absence of extracellular Ca^2+, the extracellular solution was MgNFR (in mM): 120 KCl, 2.5 KCl, 2 MgCl2, 10 HEPES, pH adjusted to 7.3 with NaOH. ACh and memantine were added from stock solutions and applied through an application system, that allowed solution exchange with a time constant of ˜1s. Currents were filtered at 100 Hz and sampled at a frequency of 1 kHz. Dose-inhibition relations obtained from electrophysiological experiments were fitted to the empirical Hill equation, [formula]
# where Inorm is the normalized current, c is the blocker concentration, IC50 is the half-inhibitory concentration, and nH is the Hill coefficient. Data analysis and fitting was performed with IgorPro (Wavemetrics, Lake Oswego, Oreg.) on a Macintosh PowerPC. Unless stated otherwise, data are presented as mean±standard deviation.
# The coding region of the rat α10 gene (GenBank Accession No. AF196344) was amplified from rat brain cDNA by PCR using 5′- and 3′-adapter-primers containing suitable restriction sites (GA-GACCCGGGAGCTCCACC, […] and […]). The amplified fragments were subcloned into the Xenopus oocyte expression vector pGEM-HE (gift of Dr. J. Tytgat), yielding pGEM-HE-nAChR-α10, verified by sequencing. Capped mRNAs for α9, α10 and SK2 were synthesized in vitro using the mMESSAGE mMACHINE kit (Ambion, Austin, Tex.). To detect α10 and α9 transcripts, PCR was performed using reverse transcribed RNA isolated from either OHCs (containing some Deiters cells) or supporting cells (Deiters and Hensen's cells) as template. Cells were collected from rat organs of Corti using suction glass micropipettes (diameter 10 μm). RNA was prepared from ˜100 cells of each fraction using the Qiagen RNeasy kit (Qiagen, Hilden, FRG) according to the manufacturers instructions. The oligonucleotides used as primers in the PCR reactions were chosen to span an intron in the human α9 and α10 genes to allow differentiation between products originating from cDNA and products originating from contaminating genomic DNA.
# In (A) currents evoked by activation of α9/α10 nAChRs are dependent on external Ca^2+. Traces show subsequent applications of 100 μM ACh to the same oocyte in CaNFR (Ca^2+) and MgNFR (Mg^2+) at −80 mV. (B) Currents from homomeric α9 (upper trace) and heteromeric α9/α10 nAChRs (lower trace), recorded by application of 100 μM ACh in nominally Ca^2+-free external solution (MgNFR; −80 mV). (C) Current amplitudes from oocytes expressing α9 and α9/α10, recorded as in FIG. 3B (mean±standard error from 12 and 15 oocytes, respectively). (D) ACh-induced (100 μM) currents recorded from α9/α10 nAChRs in the presence of the memantine concentrations indicated. (E) Memantine dose-inhibition curves of α9/α10 nAChR. Peak currents were recorded as in (D) and normalized to the current amplitude after washout of the blocker. […] (F) I-v relations of α9/α10 nAChR recorded in the absence (black) and presence (gray trace) of 1 μM memantine in response to 2 s voltage ramps from −100 to +50 mV. […]
# [4] = target: T4, α9/α10 heteromeric acetylcholine receptors (Rattus norvegicus, UniProt P43144+Q9JLB5); experiment: Experiment 6: voltage-clamp on alpha9/alpha10 acetylcholine receptors in Xenopus laevis oocytes; type: cell-based; conditions: cells held at −30 mV, 100 μM acetylcholine; read-out: halfmaximal inhibition concentration
# T4 construct: The coding region of the rat α10 gene; expressed in transfected cells; host or cells: Xenopus laevis oocytes (mRNA injection)
# T4 sequence (P43144 26-479): as the sequence (P43144 26-479) above
# T4 sequence (Q9JLB5 25-447): as the sequence (Q9JLB5 25-447) above
# Method: as §2, with “NaOH.” for “NaOH. For experiments in the absence of extracellular Ca^2+, the extracellular solution was MgNFR (in mM): 120 KCl, 2.5 KCl, 2 MgCl2, 10 HEPES, pH adjusted to 7.3 with NaOH.”
# For further characterization of memantine treatment on the nAChR, the mRNA of alpha9/alpha10 subunits of the acetylcholine receptor were injected in oocytes of Xenopus laevis. […] In this experiment the polarization potential of the cells was measured after application of 100 μM acetylcholine in the presence or absence of memantine. […]
# neuronal α4/β2 nAChRs = neuronal α4/β2 nAChRs (Homo sapiens, UniProt P17787+P43681); conditions: at −100 mV; cited from earlier work
# Sequence of neuronal α4/β2 nAChRs (P43681 29-627 limits assumed): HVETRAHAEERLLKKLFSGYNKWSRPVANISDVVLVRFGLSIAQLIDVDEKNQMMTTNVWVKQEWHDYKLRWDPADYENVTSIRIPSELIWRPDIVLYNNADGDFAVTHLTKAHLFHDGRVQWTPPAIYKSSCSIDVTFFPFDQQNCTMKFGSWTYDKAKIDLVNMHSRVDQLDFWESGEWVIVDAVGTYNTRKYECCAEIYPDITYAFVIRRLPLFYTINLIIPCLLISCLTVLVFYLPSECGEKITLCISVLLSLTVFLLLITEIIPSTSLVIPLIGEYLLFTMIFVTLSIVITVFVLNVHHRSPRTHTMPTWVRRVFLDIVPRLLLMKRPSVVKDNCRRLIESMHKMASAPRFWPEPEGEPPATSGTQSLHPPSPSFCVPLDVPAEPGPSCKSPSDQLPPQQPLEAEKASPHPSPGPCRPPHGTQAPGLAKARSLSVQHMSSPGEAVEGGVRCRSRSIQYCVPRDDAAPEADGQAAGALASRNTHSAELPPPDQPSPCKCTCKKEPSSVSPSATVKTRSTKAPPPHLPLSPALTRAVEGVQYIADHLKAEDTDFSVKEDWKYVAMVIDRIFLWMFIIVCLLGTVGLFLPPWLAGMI
# Sequence of neuronal α4/β2 nAChRs (P17787 26-502): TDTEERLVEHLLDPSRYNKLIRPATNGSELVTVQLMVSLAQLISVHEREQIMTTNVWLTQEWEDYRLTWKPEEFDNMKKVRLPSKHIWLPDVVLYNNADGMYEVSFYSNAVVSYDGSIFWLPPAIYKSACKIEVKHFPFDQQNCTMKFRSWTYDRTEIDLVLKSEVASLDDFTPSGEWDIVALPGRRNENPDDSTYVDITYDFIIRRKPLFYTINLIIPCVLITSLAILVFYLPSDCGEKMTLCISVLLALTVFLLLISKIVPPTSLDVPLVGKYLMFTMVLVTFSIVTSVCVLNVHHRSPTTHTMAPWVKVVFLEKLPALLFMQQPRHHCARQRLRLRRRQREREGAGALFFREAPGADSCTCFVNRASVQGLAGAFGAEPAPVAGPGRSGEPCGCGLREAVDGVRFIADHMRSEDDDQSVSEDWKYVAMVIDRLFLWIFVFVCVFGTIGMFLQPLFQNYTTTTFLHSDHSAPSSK
smiles,measurement,setting,value
"CC12CC3CC(C)(C1)CC(N)(C3)C2 [memantine, 3.5-dimethyl-1-adamantanamine]",Hill coefficient nH of block of nAChR currents in OHCs,nAChR currents in OHCs,0.9
same,IC50,nAChR currents in OHCs; steady-state,1100 nM
same,Hill coefficient of inhibition of IPSCs,[1],2
same,fold higher concentrations required for inhibition of IPSCs than for inhibition of SK2 currents in the oocyte system,[1]; IPSCs in OHCs vs SK2 currents in oocytes,10 fold
same,IC50,"[1]; Rattus norvegicus, iPSC, read-out: IC50 for inhibition of IPSC in OHCs",~16600 nM
same,Hill coefficient nH of inhibition of the nAChR-induced SK2 current,[2],1.1
same,IC50,"[2]; peak outward currents, read-out: IC50 of inhibition of the nAChR-induced SK2 current",700 nM
same,IC50,[3],~1000 nM
same,Increase of memantine block from +50 mV to −80 mV (factor),"α9/α10 nAChR; 1 μM memantine, voltage ramps, MgNFR",1.6
same,IC50,"α9/α10 nAChR; CaNFR (2 mM Ca2+), 100 μM ACh, peak currents, read-out: IC50 of block of α9/α10 nAChR current",1300 nM
same,Hill coefficient nH of block of α9/α10 nAChR current,"α9/α10 nAChR; CaNFR, 100 μM ACh",1.0
same,IC50,"α9/α10 nAChR; MgNFR (nominally Ca2+-free), 100 μM ACh, peak currents, read-out: IC50 of block of α9/α10 nAChR current",1600 nM
same,Hill coefficient nH of block of α9/α10 nAChR current,"α9/α10 nAChR; MgNFR, 100 μM ACh",1.2
same,IC50,"α9/α10 nAChR; summary of FIGS. 3E, 5B, read-out: affinity for memantine of α9/α10 receptors",~1000 nM
same,IC50,[4],~1000 nM
same,IC50,neuronal α4/β2 nAChRs,7000 nM
